Laboratory results as given in patent US4220587A, “Amino acid derivatives of 6-(2-amino-2-arylacetamido)penicillanic acids” (Mitsubishi Chemical Industries, Limited, priority 1975, dated 1980).
Values after ≈ are worked out from the molar mass of the structure shown.

Key:
Assay type in all cases: cell-based
Staph. aureus (FDA 209P) = assay: MIC, agar dilution, Staph. aureus; settings: Staphylococcus aureus, FDA209P, 20 h, read-out: Minimum Inhibitory Concentration (MIC)
Procedure: (§1) The compounds of this invention were tested for antibacterial activity according to the following procedure. Nutrient broth and nutrient agar were prepared according to the conventional procedure. […] was used as a vehicle. The stock solution was prepared at 100 μg/ml of the test material in the vehicle. Two-fold dilutions were made with the vehicle and then the diluted stock solution was added to a petri dish and solidified by chilling. Test organisms were grown in the nutrient broth for 20 hours at 37° C. The hardened surface was inoculated with a loopful of the test organism solution containing 1×10^6 cells per milliliter and incubated for 20 hours at 37° C. At the end of this period, growth of the organism was observed. […] The following Table 1 summarizes the activity of representative compounds as active antibacterial agents, and compares them with the prior art compounds and the reference drug Sulbenicillin.

E. coli (NIHJ) = assay: MIC, agar dilution, E. coli; settings: Escherichia coli, 20 h, read-out: Minimum Inhibitory Concentration (MIC)
Procedure: as §1

[1] = tested on: Proteus vulgaris (IFO 3045); assay: MIC, agar dilution, Proteus vulgaris; settings: Proteus vulgaris, IFO3045, 20 h, read-out: Minimum Inhibitory Concentration (MIC)
Procedure: as §1

[2] = tested on: Proteus mirabilis (IFO 3849); assay: MIC, agar dilution, Proteus mirabilis; settings: Proteus mirabilis, IFO3849, 20 h, read-out: Minimum Inhibitory Concentration (MIC)
Procedure: as §1

[3] = tested on: Proteus morgani (IFO 3848); assay: MIC, agar dilution, Proteus morgani; settings: Morganella morganii, IFO3848, 20 h, read-out: Minimum Inhibitory Concentration (MIC)
Procedure: as §1

Pseudomonas aeruginosa = assay: MIC, agar dilution, Pseudomonas aeruginosa (strain not given); settings: ATCC 15691 / ATCC 15692, 20 h, read-out: Minimum Inhibitory Concentration (MIC)
Procedure: as §1

Compound `Cc1ccc(S(=O)(=O)N(C)[C@H](C)C(=O)N[C@@H](C(=O)N[C@@H]2C(=O)N3[C@@H]2SC(C)(C)[C@@H]3C(=O)O)c2ccc(O)cc2)cc1` [Compound 18] has an MIC (Staph. aureus (FDA 209P)) of 0.31 µg/mL (≈ 0.513 µM).

For `CC1(C)S[C@@H]2[C@H](NC(=O)[C@H](NC(=O)[C@H]3CCCCN3C(=O)OCc3ccccc3)c3ccc(O)cc3)C(=O)N2[C@H]1C(=O)O` [Compound 8], the MIC (Staph. aureus (FDA 209P)) was 1.25 µg/mL (≈ 2.05 µM).

For `CC1(C)S[C@@H]2[C@H](NC(=O)[C@H](NC(=O)C3CCCCN3)c3ccccc3)C(=O)N2[C@H]1C(=O)O` (some centres unmarked) [Compound 13], the MIC (Staph. aureus (FDA 209P)) was 3.75 µg/mL (≈ 8.14 µM).

Compound `CC1(C)S[C@@H]2[C@H](NC(=O)[C@H](NC(=O)C3Cc4ccccc4CN3)c3ccccc3)C(=O)N2[C@H]1C(=O)O` (some centres unmarked) [Compound 16] has an MIC (Staph. aureus (FDA 209P)) of 0.46 µg/mL (≈ 0.904 µM).

For `CN[C@H](C)C(=O)N[C@@H](C(=O)N[C@@H]1C(=O)N2[C@@H]1SC(C)(C)[C@@H]2C(=O)O)c1ccccc1` [Compound 20], the MIC (Staph. aureus (FDA 209P)) was 1.87 µg/mL (≈ 4.3 µM), the MIC (E. coli (NIHJ)) was 25 µg/mL (≈ 57.5 µM) and the MIC [1] was 6.2 µg/mL (≈ 14.3 µM). For the same compound, the MIC [2] was 9.3 µg/mL (≈ 21.4 µM), the MIC [3] was 9.3 µg/mL (≈ 21.4 µM) and the MIC (Pseudomonas aeruginosa) was 37.5 µg/mL (≈ 86.3 µM).

In the case of `CC1(C)S[C@@H]2[C@H](NC(=O)[C@H](NC(=O)[C@H]3CCCCN3C(=O)OCc3ccccc3)c3ccccc3)C(=O)N2[C@H]1C(=O)O` [Compound 9], the MIC (Staph. aureus (FDA 209P)) is reported as 0.62 µg/mL (≈ 1.04 µM).

`CC1(C)S[C@@H]2[C@H](NC(=O)[C@H](NC(=O)[C@H]3CCCN3C(=O)OCc3ccccc3)c3ccc(O)cc3)C(=O)N2[C@H]1C(=O)O` [Compound 5] showed an MIC (Staph. aureus (FDA 209P)) of 2.5 µg/mL (≈ 4.19 µM).

Work on `Cc1ccc(S(=O)(=O)N(C)[C@@H](C(=O)N[C@@H](C(=O)N[C@@H]2C(=O)N3[C@@H]2SC(C)(C)[C@@H]3C(=O)O)c2ccccc2)c2ccccc2)cc1` [Compound 26] yielded an MIC (Staph. aureus (FDA 209P)) of 0.62 µg/mL (≈ 0.953 µM).

For `CC1(C)S[C@@H]2[C@H](NC(=O)[C@H](NC(=O)[C@@H]3CCCN3C(=O)OCc3ccccc3)c3ccc(O)cc3)C(=O)N2[C@H]1C(=O)O` [Compound 6], the MIC (Staph. aureus (FDA 209P)) was 1.25 µg/mL (≈ 2.09 µM).

With `CC1(C)S[C@@H]2[C@H](NC(=O)[C@H](NC(=O)[C@H]3CCCCN3)c3ccccc3)C(=O)N2[C@H]1C(=O)O` [Compound 12] the MIC (Staph. aureus (FDA 209P)) was 1.25 µg/mL (≈ 2.71 µM).

`CC1(C)S[C@@H]2[C@H](NC(=O)[C@H](NC(=O)[C@H]3CCN3)c3ccc(O)cc3)C(=O)N2[C@H]1C(=O)O` [Compound 29] was tested, and the MIC (Staph. aureus (FDA 209P)) was 5 µg/mL (≈ 11.1 µM), the MIC (E. coli (NIHJ)) was 18.7 µg/mL (≈ 41.7 µM) and the MIC [1] was 3.1 µg/mL (≈ 6.91 µM). It also gave an MIC [2] of 3.1 µg/mL (≈ 6.91 µM), an MIC [3] of 3.1 µg/mL (≈ 6.91 µM) and an MIC (Pseudomonas aeruginosa) of 37.5 µg/mL (≈ 83.6 µM).

Work on `CC1(C)S[C@@H]2[C@H](NC(=O)[C@H](NC(=O)C3CCCCN3C(N)=O)c3ccccc3)C(=O)N2[C@H]1C(=O)O` (some centres unmarked) [Compound 11] yielded an MIC (Staph. aureus (FDA 209P)) of 0.31 µg/mL (≈ 0.616 µM).

Work on `CC1(C)S[C@@H]2[C@H](NC(=O)[C@H](NC(=O)[C@H]3CCCN3C(=O)OCc3ccccc3)c3ccccc3)C(=O)N2[C@H]1C(=O)O` [Compound 2, potassium 6-[D-2-(N-benzyloxycarbonyl-D-prolyl)amino-2-phenylacetamido]penicillanatemonohydrate] yielded an MIC (Staph. aureus (FDA 209P)) of 1.25 µg/mL.

For `CN[C@H](CC(C)C)C(=O)N[C@@H](C(=O)N[C@@H]1C(=O)N2[C@@H]1SC(C)(C)[C@@H]2C(=O)O)c1ccccc1` [Compound 27], the MIC (Staph. aureus (FDA 209P)) was 0.62 µg/mL (≈ 1.3 µM).

For `Cc1ccc(S(=O)(=O)N(C)CC(=O)N[C@@H](C(=O)N[C@@H]2C(=O)N3[C@@H]2SC(C)(C)[C@@H]3C(=O)O)c2ccccc2)cc1` [Compound 22], the MIC (Staph. aureus (FDA 209P)) was 0.31 µg/mL (≈ 0.539 µM), the MIC (E. coli (NIHJ)) was 25 µg/mL (≈ 43.5 µM) and the MIC [1] was 25 µg/mL (≈ 43.5 µM). The MIC [2] was 23 µg/mL (≈ 40 µM), the MIC [3] was 12.5 µg/mL (≈ 21.8 µM) and the MIC (Pseudomonas aeruginosa) was 25 µg/mL (≈ 43.5 µM).

Compound `CC1(C)S[C@@H]2[C@H](NC(=O)[C@H](NC(=O)[C@H]3CCCCN3C(N)=O)c3ccccc3)C(=O)N2[C@H]1C(=O)O` [Compound 10] has an MIC (Staph. aureus (FDA 209P)) of 0.31 µg/mL (≈ 0.616 µM).

Compound `CN[C@H](C)C(=O)N[C@@H](C(=O)N[C@@H]1C(=O)N2[C@@H]1SC(C)(C)[C@@H]2C(=O)O)c1ccc(O)cc1` [Compound 21] has an MIC (Staph. aureus (FDA 209P)) of 1.87 µg/mL (≈ 4.15 µM), an MIC (E. coli (NIHJ)) of 12.3 µg/mL (≈ 27.3 µM) and an MIC [1] of 4.7 µg/mL (≈ 10.4 µM). The MIC [2] was 6.2 µg/mL (≈ 13.8 µM) and the MIC [3] was 3.1 µg/mL (≈ 6.88 µM).

Work on `Cc1ccc(S(=O)(=O)N(C)[C@H](CC(C)C)C(=O)N[C@@H](C(=O)N[C@@H]2C(=O)N3[C@@H]2SC(C)(C)[C@@H]3C(=O)O)c2ccccc2)cc1` [Compound 23] yielded an MIC (Staph. aureus (FDA 209P)) of 0.62 µg/mL (≈ 0.983 µM).

With `CC1(C)S[C@@H]2[C@H](NC(=O)[C@H](NC(=O)C3NCc4ccccc43)c3ccccc3)C(=O)N2[C@H]1C(=O)O` (some centres unmarked) [Compound 14] the MIC (Staph. aureus (FDA 209P)) was 0.31 µg/mL (≈ 0.627 µM).
